Measured values as given in patent US20080166766A1, “Genetic incorporation of unnatural amino acids into proteins in mammalian cells” (The Scripps Research Institute, priority 2006, published 2008).

Tests used:
position 37 of GFP = test: Fidelity of unnatural amino acid incorporation by mass spectrometry (nano-RP LC/MS/MS, ESI TOF-MS); settings: for wild type peptide signals in tandem MS of mutant GFP sample: nano-RP LC/MS/MS of tryptic fragments, mutant GFP from T-REx CHO cells
Source text: To further characterize GFP-pMpa, the mutant protein was expressed in T-REx™ CHO cells transiently transfected with both pSWAN-pMpaRS and pSWAN-GFP37TAG. The protein was purified using an anti-myc antibody agarose column and then separated by SDS-PAGE. The GFP-pMpa band from the SDS-PAGE gel was digested with trypsin and analyzed by nanoscale reversed-phase liquid chromatography/mass spectrometry/mass spectrometry (nano-RP LC/MS/MS). In parallel, wild type GFP was purified from cells transfected with pcDNA4-GFP and subjected to the same analysis.
Proteolysis of affinity purified proteins (performed for wild-type and pBpa samples) was carried out by overnight incubation of proteins at 37° C. with sequencing-grade modified trypsin (Promega) using a substrate/enzyme ratio of 10:1 (wt/wt) based on the estimated protein concentration in 100 mM triethylammonium bicarbonate buffer (pH 8.5). In-gel digestions (performed for pMpa, pAzpa, pApa, and pPpa samples) were performed according to a modified EMBL procedure (see the website for EMBL, Heidelberg, Germany, Bioanalytical Research Group). Briefly, gel slices were excised to approximately 1 mm×1 mm cubes, washed for 5 minutes with water, 15 minutes with acetonitrile, and dried in a vacuum centrifuge before being rehydrated at 0° C. for 30 minutes with 12.5 ng/μl of sequencing-grade modified trypsin in 50 mM triethylammonium bicarbonate buffer (pH 8.5). Excess buffer was removed and 20 μl of 50 mM triethylammonium bicarbonate buffer (pH 8.5) was added to the gel slices before incubating at 37° C. overnight. Peptides were extracted from the gel slices as described in the protocol.
Nano-RP LC/MS/MS was performed with an HPLC pump, autosampler (Agilent Technologies, Palo Alto, Calif.), and an LTQ Orbitrap hybrid mass spectrometer (ThermoElectron, San Jose, Calif.). Tryptic digests were loaded with a pressure bomb onto a 75 μm i.d. precolumn packed with 4 cm of 5-μm Monitor C18 particles (Column Engineering, Ontario, Calif.) at a flow rate of approximately 2 μl/min. The precolumn was then connected to the HPLC pump and after several minutes of washing with solvent A the analytical column with integrated emitter tip (360 μm O.D.×75 μm i.d; 10 cm of 5 μM C18, ˜5-μm tip) was connected in series. The chromatographic profile was from 100% solvent A (0.1% aqueous acetic acid) to 50% solvent B (0.1% acetic acid in acetonitrile) in 40 min; the flow rate through the analytical column was ca. 100 nl/min.
For data-dependent experiments, the mass spectrometer was programmed to first record a high-resolution Orbitrap scan then a full-scan ion trap spectrum (m/z 500-2,000). This was followed by 10 data-dependent MS/MS scans (relative collision energy=35%; 3-Da isolation window) triggered of the ion-trap scan and finally two targeted MS/MS scans. The first targeted MS/MS scan was set to isolate and fragment the doubly charged precursor ion of the predicted unnatural amino acid modified peptide
at m/z 752.3. The raw data were searched against the MSDB database using MASCOT (Matrixscience, London, UK) for protein identification and to find the scans containing the target peptides with the unnatural amino acids as variable modification. To estimate fidelity at Y*37 of GFP-pMpa, single ion chromatograms (doubly charged precursor ions at m/z 752.3 for the wt and 759.3 for pMpa) and selected ion chromatograms (y9, y11, and y12) were integrated using the Xcalibur software package (ThermoElectron, San Jose, Calif.).
Intact protein mass spectra were acquired on an automated LC/MS system (Waters, Milford, Mass.) consisting of a capillary LC with auto-sampler and a QTOF2 mass spectrometer. GFP-pMpa (0.1 mg/ml) was loaded onto a reversed-phase protein Captrap (Michrom Bioresources, Auburn, Calif.) for desalting with 0.1% acetic acid in water and eluted with 80% acetonitrile/0.1% acetic acid at 5 μl/min into the ESI source of the mass spectrometer. […]

T-REx™ CHO cells = test: Yield of purified mutant GFP containing unnatural amino acid (pSWAN two-plasmid system); type: cell-based, Chinese hamster; settings: pMpa 10 mM, pApa 10 mM, pBpa 1 mM, pAzpa 5 mM, pPpa 1 mM in media, anti-myc column purified
Source text: The pMpaRS gene was inserted directly after the non-regulated CMV promoter for efficient and continuous expression of pMpaRS. Another plasmid (pSWAN-GFP37TAG in FIG. 4B) containing both three tandem repeats of the BstRNACUA^Tyr gene and the GFP37TAG gene was also constructed. The gene encoding GFP37TAG was inserted after a Tet-regulated CMV promoter to minimize potential read-through of the nonsense amber codon caused by endogenous amber suppression in mammalian cells. These two plasmids were then assayed for their suppression efficiency. Because both plasmids contain three tandem repeats of the BstRNACUA^Tyr gene, varying the ratio of the two plasmids to increase the suppression level is not expected to change the total amount of the BstRNACUA^Tyr gene transfected into cells. Under optimized transfection conditions (0.5 μg of pSWAN-pMpaRS and 2.5 μg pSWAN-GFP37TAG per 2×10^6 cells), the suppression level is roughly two-fold higher than that using the three plasmids pUC18-3BstRNACUA^Tyr, pcDNA4-pMpaRS, and pcDNA4-GFP37TAG (the suppression level was determined by the number of fluorescent cells). Cells were grown for 1-2 days after induction and kept viable before harvesting. The yield of mutant GFP containing pMpa (GFP-pMpa) was also quantified. In the presence of 10 mM pMpa in the growth media, 1 μg of mutant GFP can be obtained from 2×10^7 adhesive T-REx™ CHO cells.
Transient transfection of T-REx™ CHO and 293 cells with the pSWAN-EcTyrRS variants and pSWAN-GFP37TAG (0.5 μg of pSWAN-EcTyrRS variant and 2.5 μg of pSWAN-GFP37TAG per 2×10^6 cells) all afforded roughly two-fold higher suppression levels than for the three plasmids pUC18-3BstRNACUA^Tyr, pcDNA4-EcTyrRS variant, and pcDNA4-GFP37TAG (with the exception of the pIpa specific variant). Mutant GFPs containing pApa, pBpa, pAzpa or pPpa were also expressed in T-REx™ CHO cells transfected with the pSWAN-EcTyrRS variants and pSWAN-GFP37TAG and grown in media containing the corresponding unnatural amino acid (pApa, 10 mM; pBpa, 1 mM; pAzpa, 5 mM; or pPpa, 1 mM) for 1-2 days, and purified using an anti-myc antibody column. The yields of the mutant proteins containing pApa and pAzpa were close to that for pMpa (˜1 μg per 2×10^7 cells), and the yields of mutant proteins containing pBpa and pPpa were somewhat lower (˜0.7 μg per 2×10^7 cells). Because the expression levels of EcTyrRS variants in T-REx™ CHO cells are similar, the lower yield of the mutant proteins containing pBpa and pPpa may be due to the low concentrations of unnatural amino acids in the media.
pSWAN-EcTyrRS variants and pSWAN-GFP37TAG were used to express mutant GFPs containing unnatural amino acids. T-REx™ CHO cells (Invitrogen™) were grown in 75 cm^2 tissue culture flasks (BD Biosciences) to 80-90% confluency and transfected with 2 μg of pSWAN-EcTyrRS and 10 μg pSWAN-GFP37TAG using […] FuGENE® 6. After overnight incubation, the media were changed to the fresh media containing the unnatural amino acid (pMpa, 10 mM; pApa, 10 mM; pBpa, 1 mM; pAzpa, 5 mM; and pPpa, 1 mM) and 1 μg/ml tetracycline. Cells were then grown for 1-2 days at 37° C. before harvesting, and then lysed with RIPA lysis buffer. The supernatant from the cell lysate was dialyzed against and equilibrated with PBS buffer before loading onto an anti-myc antibody agarose column (Sigma). The column was washed with 15 column volumes of PBS buffer and then eluted with 0.1 M ammonium hydroxide. The purified proteins were neutralized with 0.1 M acetic acid and analyzed by SDS-PAGE. […]

[1] = system: Invitrogen™ T-REx™ CHO cells; test: Amber suppression of GFP37TAG: full-length GFP expression by Western blot in T-REx CHO cells; type: cell-based, Chinese hamster; settings: BstRNACUA^Tyr + EcTyrRS variant, unnatural amino acid in media (plpa 8 mM), 24 hours
Procedure: (§1) The ability of the six EcTyrRS variants together with BstRNACUA^Tyr to suppress the amber codon in GFP37TAG was then tested in the presence and absence of unnatural amino acids in the growth media. Transient transfection of cells with plasmids was carried out as described for wild type EcTyrRS. Six hours after transfection, the media were replaced by the fresh media containing 1 μg/ml tetracycline and supplemented with the corresponding unnatural amino acid (pMpa, 10 mM; pApa, 10 mM; pBpa, 1 mM; plpa, 8 mM; pAzpa, 5 mM; or pPpa, 1 mM). Cells were then grown 24 hours for T-REx™ CHO cell lines and 48 hours for T-REx™ 293 cell lines before harvesting. In both T-REx™ CHO and 293 cells, the expression of full length GFP37TAG was dependent upon the presence of unnatural amino acids in the growth media as indicated in FIG. 2 and FIG. 3. […]
(§2) For Western blot analysis, harvested cells were lysed in RIPA buffer (Upstate Biotechnology/Millipore) with a 1:100 dilution of protease inhibitor cocktail (Sigma). […] Chemiluminescence was then detected with PIERCE ECL Western Blotting substrate. For T-REx™ 293 cells, the membranes were probed with anti-His-HRP (Invitrogen™; 1:5000 dilution) and then detected with PIERCE ECL Western Blotting substrate.

T-REx™ 293 cells = test: Cellular toxicity of unnatural amino acid in growth media; type: cell-based; settings: 8 mM in growth media
[2] = system: Invitrogen™ T-REx™ 293 cells; test: Amber suppression of GFP37TAG: full-length GFP expression by Western blot in T-REx 293 cells; type: cell-based, human; settings: BstRNACUA^Tyr + EcTyrRS variant, unnatural amino acid in media (plpa 8 mM), 48 hours
Procedure: as §1, §2

Row | Compound | wild type peptide signals in tandem MS of mutant GFP sample (position 37 of GFP) | yield of mutant GFP containing the unnatural amino acid (T-REx™ CHO cells) [μg per 2×10^7 cells] | also measured
1 | CC(=O)c1ccc(C[C@H](N)C(=O)O)cc1 [pApa, p-acetylphenylalanine] | No wild type signals could be detected | ~1 | –
2 | N[C@@H](Cc1ccc(C(=O)c2ccccc2)cc1)C(=O)O [pBpa, p-benzoylphenylalanine] | trace amount of the wild type peptide | ~0.7 | –
3 | COc1ccc(C[C@H](N)C(=O)O)cc1 [pMpa, p-methoxyphenylalanine] | – | 1 | purity estimate from the three most abundant fragment ions (y9, y11, y12) in tandem MS (position 37 of GFP; GFP-pMpa from T-REx CHO cells): 99.93%; fidelity for incorporation (integration of single ion chromatograms of precursor ions) (position 37 of GFP; GFP-pMpa from T-REx CHO cells, tryptic peptide […]*GK): > 99.9%; wild type GFP signals in intact protein ESI TOF-MS (position 37 of GFP; anti-myc purified GFP-pMpa, charge-state deconvoluted spectrum): No wild type GFP signals
4 | C#CCOc1ccc(C[C@H](N)C(=O)O)cc1 [pPpa, p-propargyloxyphenylalanine] | No wild type signals could be detected | ~0.7 | –
5 | N[C@@H](Cc1ccc(I)cc1)C(=O)O [plpa, p-iodophenylalanine] | – | – | expression of full length GFP37TAG [1]: low expression level; time until cells die (cellular toxicity) (T-REx™ 293 cells): 6 h; expression of full length GFP37TAG [2]: no GFP expression
